Laboratory results from patent US8003801B2 (The Scripps Research Institute, priority 2005, dated 2011).
“And” between values parts separate entries of the source, which are not always exact repeats. Equal values may be shown once. Read-outs that look alike come from different tables or passages of the source.

How the values were obtained:
[1] = system: 1A9 human ovarian cancer cell line; experiment: 72 hour growth-inhibition (cytotoxicity) assay, 1A9 cells; assay type: cell-based
[2] = system: KB-31 human epidermoid cancer cell line; experiment: 72 hour growth-inhibition (cytotoxicity) assay, KB-31 cells; assay type: cell-based
[3] = system: 1A9/PTX10, Taxol-resistant 1A9 cell line (β270 Phe→Val); experiment: 72 hour growth-inhibition (cytotoxicity) assay, 1A9/PTX10 cells; assay type: cell-based, human; settings: for RRp (relative resistance), 1A9/PTX10: IC50 of 1A9/PTX10 divided by IC50 of the parental cell line 1A9
[4] = system: KB-8511, Taxol-resistant (Pgp-overexpression) KB cell line; experiment: 72 hour growth-inhibition (cytotoxicity) assay, KB-8511 cells
Method: In addition, further cytotoxicity studies were carried out using a pair of drug-sensitive parental human epidermoid carcinoma cells (KB-31) and its Taxol™-resistant Pgp-overexpressing subline (KB-5811).

[5] = system: 1A9/A8, EpoA-resistant 1A9 cell line (β274 Thr→Ile); experiment: 72 hour growth-inhibition (cytotoxicity) assay, 1A9/A8 cells; assay type: cell-based, human; settings: for RRp (relative resistance), 1A9/A8: IC50 of 1A9/A8 divided by IC50 of the parental cell line
[6] = system: A2780/AD10, drug-resistant clone of human ovarian carcinoma A2780 overexpressing P-glycoprotein; experiment: 72 hour growth-inhibition (cytotoxicity) assay, A2780/AD10 cells; assay type: cell-based; settings: for IC50: 72 hour growth inhibition, sulforhodamine-B staining, mean of 3-5 experiments ± SEM; for RRp (relative resistance), A2780/AD10: IC50 of A2780/AD10 divided by IC50 of the parental cell line
[7] = system: drug-sensitive and drug-resistant human cancer cell lines; experiment: Cytotoxicity assays across the panel of cell lines (summary in words); assay type: cell-based; settings: summary of Tables 1A-1C
[8] = ratio of IC50 of EpoB to IC50 of the tested compound in the concurrent assay
[9] = Homo sapiens, 1A9, 72 hour growth inhibition, sulforhodamine-B staining, mean of 3-5 independent experiments ± standard error of the mean, read-out: 1A9 IC50
[10] = Homo sapiens, KB 3-1, 72 h, read-out: KB-31 IC50
[11] = Homo sapiens, 1A9/ptx-10, 72 hour growth inhibition, sulforhodamine-B staining, mean of 3-5 experiments ± SEM, read-out: 1A9/PTX10 IC50
[12] = read-out: KB-8511 IC50, 72 hour growth inhibition, methylene blue staining, mean of 3-5 experiments ± SEM
[13] = Homo sapiens, 1A9, 72 hour growth inhibition, sulforhodamine-B staining, mean of 3-5 experiments ± SEM, read-out: 1A9/A8 IC50
[14] = 72 hour growth inhibition, sulforhodamine-B staining, mean of 3-5 independent experiments ± standard error of the mean, read-out: 1A9 IC50
[15] = 72 hour growth inhibition, sulforhodamine-B staining, mean of 3-5 experiments ± SEM, read-out: 1A9/PTX10 IC50
[16] = 72 hour growth inhibition, sulforhodamine-B staining, mean of 3-5 experiments ± SEM, read-out: 1A9/A8 IC50

## CSc1nc(/C=C(\C)[C@@H]2C[C@@H]3C[C@]3(C)CCC[C@H](C)[C@H](O)[C@@H](C)C(=O)C(C)(C)[C@@H](O)CC(=O)O2)cs1 [Compound 4, reference compound]
[1]; Homo sapiens, 1A9, Table 2, tested epothilone, unit from Table 1A note a, read-out: IC50, 1A9 (Table 2)
  IC50: 0.1 nM
[1]; [8]
  RAEpoB (relative activity), 1A9: 6.0
[2]; Homo sapiens, KB 3-1, read-out: IC50, KB-31 (Table 2)
  IC50: 0.2 nM
[3]; Homo sapiens, 1A9/ptx-10, Table 2, tested epothilone, unit from Table 1A note a, read-out: IC50, 1A9/PTX10 (Table 2)
  IC50: 0.7 nM
[3]; [8]
  RAEpoB (relative activity), 1A9/PTX10: 4.4
[4]; read-out: IC50, KB-5811 (Table 2), Table 2, tested epothilone, cell line KB-5811, unit from Table 1A note a
  IC50: 0.12 nM
[5]; Homo sapiens, 1A9, Table 2, tested epothilone, unit from Table 1A note a, read-out: IC50, 1A9/A8 (Table 2)
  IC50: 2.4 nM
[5]; [8]
  RAEpoB (relative activity), 1A9/A8: 2.7

## CSCc1nc(/C=C(\C)[C@@H]2C[C@@H]3O[C@]3(C)CCC[C@H](C)[C@H](O)[C@@H](C)C(=O)C(C)(C)[C@@H](O)CC(=O)O2)cs1 [Compound 5]
[1]; [9]
  IC50: 3.6 ± 1.4 nM
[2]; [10]
  IC50: 1.38 ± 0.05 nM
[3]; [11]
  IC50: 43.3 ± 12 nM
[3]
  RRp (relative resistance), 1A9/PTX10: 12.0
[4]; [12]
  IC50: 1.97 ± 0.25 nM
[6]; Homo sapiens, A2780
  IC50: 82.2 ± 49.6 nM
[6]
  RRp (relative resistance), A2780/AD10: 15.2
[5]; [13]
  IC50: 18.6 ± 11.3 nM
[5]
  RRp (relative resistance), 1A9/A8: 5.2
[7]
  cytotoxicity across the tested cell lines, in words: less potent than EpoB, exhibited high potency against several of the tested cell lines

## C/C(=C\c1c(I)ncn1C)[C@@H]1C[C@@H]2O[C@]2(C)CCC[C@H](C)[C@H](O)[C@@H](C)C(=O)C(C)(C)[C@@H](O)CC(=O)O1 [Compound 10]
[1]; [9]
  IC50: > 750 nM
[2]; [10]
  IC50: > 1000 nM
[3]; [11]
  IC50: > 750 nM
[4]; [12]
  IC50: > 1000 nM
[6]; Homo sapiens, A2780
  IC50: 1070 nM
[6]
  RRp (relative resistance), A2780/AD10: 5.9
[5]; [13]
  IC50: > 750 nM

## C/C(=C\c1cn(C)cn1)[C@@H]1C[C@@H]2O[C@]2(C)CCC[C@H](C)[C@H](O)[C@@H](C)C(=O)C(C)(C)[C@@H](O)CC(=O)O1 [Compound 11]
[1]; [9]
  IC50: 181 ± 81.6 nM
[2]; [10]
  IC50: 277 ± 122 nM
[3]; [11]
  IC50: > 750 nM
[4]; [12]
  IC50: > 1000 nM
[6]; Homo sapiens, A2780
  IC50: > 750 nM
[5]; [13]
  IC50: 150 nM
[5]
  RRp (relative resistance), 1A9/A8: 0.8

## C/C(=C\c1nc(Br)c(Br)n1C)[C@@H]1C[C@@H]2O[C@]2(C)CCC[C@H](C)[C@H](O)[C@@H](C)C(=O)C(C)(C)[C@@H](O)CC(=O)O1 [Compound 12]
[1]; [9]
  IC50: > 750 nM
[2]; [10]
  IC50: > 1000 nM
[3]; [11]
  IC50: > 750 nM
[4]; [12]
  IC50: > 1000 nM
[6]; Homo sapiens, A2780
  IC50: 574 nM
[5]; [13]
  IC50: > 750 nM

## CSc1nc(/C=C(\C)[C@@H]2C[C@@H]3O[C@]3(C)CCC[C@H](C)[C@H](O)[C@@H](C)C(=O)C(C)(C)[C@@H](O)CC(=O)O2)c(SC)n1C [Compound 13]
[1]; [9]
  IC50: > 750 nM
[2]; [10]
  IC50: 240 ± 34 nM
[3]; [11]
  IC50: > 750 nM
[4]; [12]
  IC50: 247 ± 47.9 nM
[6]; Homo sapiens, A2780
  IC50: 1.3 ± 0.3 nM
[6]
  RRp (relative resistance), A2780/AD10: 2.6
[5]; [13]
  IC50: 574 nM

## C/C(=C\c1nc(Cl)c2ncn(C)c2n1)[C@@H]1C[C@@H]2O[C@]2(C)CCC[C@H](C)[C@H](O)[C@@H](C)C(=O)C(C)(C)[C@@H](O)CC(=O)O1 [Compound 17]
[1]; [9]
  IC50: 3.7 ± 1.5 nM
[2]; [10]
  IC50: 1.62 ± 0.22 nM
[3]; [11]
  IC50: 13.6 ± 7.3 nM
[3]
  RRp (relative resistance), 1A9/PTX10: 3.7
[4]; [12]
  IC50: 20.2 ± 2.14 nM
[6]; Homo sapiens, A2780
  IC50: 46.3 ± 33.2 nM
[6]
  RRp (relative resistance), A2780/AD10: 12.5
[5]; [13]
  IC50: 4 ± 2.5 nM
[5]
  RRp (relative resistance), 1A9/A8: 1.1

## COc1nc(/C=C(\C)[C@@H]2C[C@@H]3O[C@]3(C)CCC[C@H](C)[C@H](O)[C@@H](C)C(=O)C(C)(C)[C@@H](O)CC(=O)O2)nc2c1ncn2C [Compound 18]
[1]; [9]
  IC50: 3.7 ± 1.8 nM
[2]; [10]
  IC50: 0.15 ± 0.09 nM
[3]; [11]
  IC50: 19.8 ± 10.6 nM
[3]
  RRp (relative resistance), 1A9/PTX10: 5.4
[4]; [12]
  IC50: 7.45 ± 0.81 nM
[6]; Homo sapiens, A2780
  IC50: 47.3 ± 36.5 nM
[6]
  RRp (relative resistance), A2780/AD10: 47.3
[5]; [13]
  IC50: 2.2 ± 1.6 nM
[5]
  RRp (relative resistance), 1A9/A8: 0.6

## CSc1nc(/C=C(\C)[C@@H]2C[C@@H]3O[C@]3(C)CCC[C@H](C)[C@H](O)[C@@H](C)C(=O)C(C)(C)[C@@H](O)CC(=O)O2)nc2c1ncn2C [Compound 19]
[1]; [9]
  IC50: 1 ± 0.8 nM
[2]; [10]
  IC50: 0.36 ± 0.17 nM
[3]; [11]
  IC50: 2 ± 1.5 nM
[3]
  RRp (relative resistance), 1A9/PTX10: 2.0
[4]; [12]
  IC50: 6.21 ± 0.86 nM
[6]; Homo sapiens, A2780
  IC50: 67 ± 9.8 nM
[6]
  RRp (relative resistance), A2780/AD10: 16.8
[5]; [13]
  IC50: 2.8 ± 2.2 nM
[5]
  RRp (relative resistance), 1A9/A8: 2.8

## C/C(=C\c1nnn(COCc2ccccc2)n1)[C@@H]1C[C@@H]2O[C@]2(C)CCC[C@H](C)[C@H](O)[C@@H](C)C(=O)C(C)(C)[C@@H](O)CC(=O)O1 [Compound 20]
[1]; [9]
  IC50: 4 ± 0.3 nM
[2]; [10]
  IC50: 0.57 ± 0.08 nM
[3]; [11]
  IC50: 49 ± 7 nM
[3]
  RRp (relative resistance), 1A9/PTX10: 12.3
[4]; [12]
  IC50: 4.44 ± 0.69 nM
[6]; Homo sapiens, A2780
  IC50: > 750 nM
[5]; [13]
  IC50: 16.8 ± 9.2 nM
[5]
  RRp (relative resistance), 1A9/A8: 4.2

## C/C(=C\c1csc(C)n1)[C@@H]1C[C@@H]2O[C@@H]2CCC[C@H](C)[C@H](O)[C@@H](C)C(=O)C(C)(C)[C@@H](O)CC(=O)O1 [EpoA, reference compound]
[1]; [14]
  IC50: 2.4 ± 2.6 nM
[3]; [15]
  IC50: 5.1 ± 2.6 nM
[3]
  RRp (relative resistance), 1A9/PTX10: 2.1
[6]
  IC50: 25.4 ± 8.6 nM
  RRp (relative resistance), A2780/AD10: 25.7
[5]; [16]
  IC50: 41 ± 7.3 nM
[5]
  RRp (relative resistance), 1A9/A8: 17.1

## C/C(=C\c1csc(C)n1)[C@@H]1C[C@@H]2O[C@]2(C)CCC[C@H](C)[C@H](O)[C@@H](C)C(=O)C(C)(C)[C@@H](O)CC(=O)O1 [EpoB, reference compound]
[1]; [14]
  IC50: 0.99 ± 0.8 nM
[1]; read-out: EpoB (IC50 in the concurrent assay), 1A9, Table 2, EpoB determined concurrently with the epothilone, unit from Table 1A note a
  IC50: 0.3 nM and 0.6 nM
[2]; 72 hour growth inhibition, methylene blue staining, mean of 3-5 experiments ± SEM, read-out: KB-31 IC50
  IC50: 0.42 ± 0.03 nM
[2]; read-out: EpoB (IC50 in the concurrent assay), KB-31, Table 2, EpoB determined concurrently with the epothilone
  IC50: 0.19 nM
[3]; [15]
  IC50: 7.8 ± 4.6 nM
[3]
  RRp (relative resistance), 1A9/PTX10: 7.9
[3]; read-out: EpoB (IC50 in the concurrent assay), 1A9/PTX10, Table 2, EpoB determined concurrently with the epothilone
  IC50: 3.7 nM and 3.1 nM
[4]; [12]
  IC50: 0.39 ± 0.02 nM
[6]
  IC50: 56.5 ± 23.3 nM
  RRp (relative resistance), A2780/AD10: 15.7
[5]; [16]
  IC50: 10 ± 1.4 nM
[5]
  RRp (relative resistance), 1A9/A8: 10.1
[5]; read-out: EpoB (IC50 in the concurrent assay), 1A9/A8, Table 2, EpoB determined concurrently with the epothilone
  IC50: 10 nM and 6.5 nM

## CC(=O)O[C@H]1C(=O)[C@@]2(C)[C@H]([C@H](OC(=O)c3ccccc3)[C@]3(O)C[C@H](OC(=O)[C@H](O)[C@@H](NC(=O)c4ccccc4)c4ccccc4)C(C)=C1C3(C)C)[C@]1(OC(C)=O)CO[C@@H]1C[C@@H]2O [Taxol ™, reference compound]
[2]; Homo sapiens, KB 3-1, 72 hour growth inhibition, methylene blue staining, mean of 3-5 experiments ± SEM, read-out: KB-31 IC50
  IC50: 6.08 ± 1.19 nM
[4]; [12]
  IC50: 1130 ± 74 nM
[6]; Homo sapiens, A2780
  IC50: > 150 nM

## CC(=O)O[C@@]12CO[C@@H]1C[C@H](O)[C@@]1(C)C(=O)[C@H](O)C3=C(C)[C@@H](OC(=O)[C@H](O)[C@@H](NC(=O)OC(C)(C)C)c4ccccc4)C[C@@](O)([C@@H](OC(=O)c4ccccc4)[C@H]21)C3(C)C [Taxotere ™, reference compound]
[1]; [9]
  IC50: 1.5 ± 1.1 nM
[3]; [11]
  IC50: 32 ± 6.8 nM
[3]
  RRp (relative resistance), 1A9/PTX10: 21.3
[6]; Homo sapiens, A2780
  IC50: 29.4 ± 5.4 nM
[6]
  RRp (relative resistance), A2780/AD10: 12.3
[5]; [13]
  IC50: 0.8 ± 0.2 nM
[5]
  RRp (relative resistance), 1A9/A8: 0.5
